Patent publication US20240383942A1, “WATER-SOLUBLE ALLOPR[…], AND PREPARATION METHOD THEREFOR AND USE THEREOF” (NANJING MINOVA PHARMACEUTICAL CO., LTD., priority 2021, published 2024)
Where a name gives a salt, the structure may show the parent alone.

Assays:
[1] = In vitro metabolic study in human liver microsome incubation system; settings: for Concentration of the compound to be tested (parent): human liver microsomes 0.5 mg protein/mL, NADPH, 37° C.
Experimental: Instruments, conditions and parameters: liquid chromatography-mass spectrometry system (LC/MS/MS, Shimadzu LC 30-AD, MS API 4000); the chromatographic column was ACQUITY UPLC BEH C18 column (1.7 μm 2.1×50 mm Column, Part No. 186002350); the mobile phase was acetonitrile-water-formic acid (50:50:0.1); the flow rate was 0.7 mL/min; the injection volume was 5μL; the column temperature was room temperature. An electrospray ionization (ESI) source was adopted with a spray voltage of 4.8 KV; the capillary temperature (TEM) was 300° C.; the sheath gas was N2, and the flow rate was 10 psi; the auxiliary gas was N2, and the flow rate was 1 psi; the collision-induced dissociation (CID) gas was Ar, and the pressure was 1.5 mTorr. The mass spectrometry scan mode was mass spectrometry multiple reaction monitoring (MRM), and the positive ion mode was used for detection.
About 10 mg of each of the samples to be tested was precisely weighed out and dissolved in 0.1 mL of DMSO, and the solution was stepwise diluted with purified water to prepare 10 μM and 1 μM standard stock solutions. In an ice bath, the detection incubation system was prepared according to Table 3. NADPH was added to the incubation system (see Table 4 for its composition) to start a reaction, and 50 μL of the resulting mixture was taken immediately and added to 150 μL of acetonitrile as a time-zero sample and a 1 μM standard curve sample. Another 1 μM standard stock solution was added to the incubation system, and 50 μL of the resulting mixture was taken immediately and added to 150 μL of acetonitrile as a 0.1 μM standard curve sample. […] Each sample was shaken and centrifuged at 18,000 g for 10 min, and a sample of the supernatant was taken and injected for LC/MS/MS analysis.

[2] = Saturation solubility by external standard HPLC method; assay type: physicochemical; settings: thermodynamic from solid; purified water, 25° C., stirred 24 h
Experimental: Preparation of an external standard solution: 50 mg of a compound to be tested was precisely weighed out, added to a 10 mL volumetric flask, and dissolved in a proper amount of purified water by ultrasonication. The solution was diluted to volume and mixed well to give an external standard solution with a concentration of 5.0 mg/mL.
The solution was stirred for dissolution for 24 h at 25° C. and centrifuged. The supernatant was taken and filtered through a 0.45 μm filter membrane, and the filtrate was collected. 1 mL of the filtrate described above was precisely measured out and added to a 5 mL measuring flask. Purified water was added to dilute the filtrate to volume, and the solution was mixed well to give a solution to be tested.
2. Determination of Saturation Solubility by External Standard Method
Chromatographic Conditions
Chromatographic column: Waters XBridge C8 3.5 μm 4.6×100 mm NRT2019-21#, column temperature: 45° C., detection wavelength: 205 nm;
Mobile phase A: a 10 mM/L (NH4)2HPO4 solution, mobile phase B: acetonitrile, isocratic elution A:B=40:60, flow rate: 1.0 mL/min;
Injection volume: 10 μL, run time: 10 min.
Purified water was used as a blank control solution, and the peak areas of the external standard solution and the standard solution were measured using a high performance liquid chromatograph with a UV detector and denoted as Aexternal standard and Ato be tested, respectively.

[3] = in the human body; cited from earlier work
hERG potassium channel = hERG potassium channel (Homo sapiens, UniProt Q12809); assay: Manual patch clamp assay of hERG potassium channel current in CHO-hERG cells
Chain of hERG potassium channel (Q12809 whole entry): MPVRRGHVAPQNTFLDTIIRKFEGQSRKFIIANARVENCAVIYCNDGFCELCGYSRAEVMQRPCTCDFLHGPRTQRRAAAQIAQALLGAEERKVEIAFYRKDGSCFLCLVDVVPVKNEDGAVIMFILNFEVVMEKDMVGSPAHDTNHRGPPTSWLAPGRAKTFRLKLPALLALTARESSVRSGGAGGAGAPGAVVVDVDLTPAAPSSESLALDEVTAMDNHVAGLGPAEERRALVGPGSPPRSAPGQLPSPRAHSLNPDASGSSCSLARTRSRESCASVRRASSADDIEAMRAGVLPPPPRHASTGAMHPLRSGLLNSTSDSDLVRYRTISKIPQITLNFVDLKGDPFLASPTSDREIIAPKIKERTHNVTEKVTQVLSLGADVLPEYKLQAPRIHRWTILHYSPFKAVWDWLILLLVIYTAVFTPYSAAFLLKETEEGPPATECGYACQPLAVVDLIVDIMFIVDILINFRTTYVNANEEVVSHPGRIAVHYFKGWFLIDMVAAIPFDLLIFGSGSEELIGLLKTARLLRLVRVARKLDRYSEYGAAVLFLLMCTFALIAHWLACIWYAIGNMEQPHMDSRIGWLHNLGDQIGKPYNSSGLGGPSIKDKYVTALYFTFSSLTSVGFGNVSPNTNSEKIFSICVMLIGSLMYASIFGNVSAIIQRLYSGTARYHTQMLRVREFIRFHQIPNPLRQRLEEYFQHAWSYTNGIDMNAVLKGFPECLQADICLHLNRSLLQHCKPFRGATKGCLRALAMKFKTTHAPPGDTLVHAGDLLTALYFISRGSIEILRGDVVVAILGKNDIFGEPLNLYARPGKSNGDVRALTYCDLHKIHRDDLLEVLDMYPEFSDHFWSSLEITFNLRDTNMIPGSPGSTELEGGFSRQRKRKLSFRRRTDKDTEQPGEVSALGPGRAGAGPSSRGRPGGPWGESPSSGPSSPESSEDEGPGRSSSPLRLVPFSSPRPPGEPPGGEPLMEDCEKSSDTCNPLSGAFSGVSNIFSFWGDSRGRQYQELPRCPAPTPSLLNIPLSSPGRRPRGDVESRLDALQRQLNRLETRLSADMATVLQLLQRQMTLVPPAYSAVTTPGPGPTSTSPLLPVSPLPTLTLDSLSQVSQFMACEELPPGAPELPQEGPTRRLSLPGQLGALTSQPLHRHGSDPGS
Experimental: The manual patch clamp method was used to measure the effect of the compounds on hERG potassium channel current stably expressed in Chinese hamster ovary cells.
Manual patch clamp assay method:
CHO-hERG cells in the exponential growth phase were collected and resuspended in ECS (extracellular solution) for later use. The cells were seeded in a cell recording chamber, and the chamber was placed on the stage of an inverted microscope. One of the cells in the tank was randomly selected for testing. The perfusion system was fixed onto the stage of the inverted microscope, and the cell was perfused continuously with ECS. […]
The clamping voltage was −80 mV. […] The peak value of the tail current was measured and used for analysis. […] In the initial stage of recording the perfusion with the solvent control working solution, the peak value of the tail current was monitored until 3 or more scanning curves were stabilized, and then perfusion was performed with the test sample/positive control working solution to be tested until the inhibitory effect of the test sample/positive control working solution on the peak value of the hERG current reached a stable state.
The hERG current was recorded under the whole cell patch clamp technology at room temperature. […] Data were collected and recorded by Patchmaster Pro software and processed using Origin 8E software, and hERG IC50 values were calculated.

| SMILES | Concentration of the compound to be tested (parent) ([1]; incubation time 0 min) [nM] | Concentration of the compound to be tested (parent) ([1]; incubation time 5 min) [nM] | Concentration of the compound to be tested (parent) ([1]; incubation time 15 min) [nM] | Concentration of the compound to be tested (parent) ([1]; incubation time 30 min) [nM] | Concentration of the compound to be tested (parent) ([1]; incubation time 45 min) [nM] | Concentration of the compound to be tested (parent) ([1]; incubation time 60 min) [nM] | solubility at 24 h [2] [mg/mL] | plasma half-life [3] | IC50 (hERG potassium channel) [nM] | concentration of allopregnanolone resulting from metabolism reaching a stable level (in words) ([1]; liver microsome system) |
| --- | --- | --- | --- | --- | --- | --- | --- | --- | --- | --- |
| CC(=O)[C@H]1CC[C@H]2[C@@H]3CC[C@H]4C[C@H](O)CC[C@]4(C)[C@H]3CC[C@]12C [Allopregnanolone, 3α-OH-5α-pregnan-20-one] | 1000 | 626 | 414 | 259 | 150 | 119 | < 0.01 | about 45 minutes |  |  |
| CC(=O)[C@H]1CC[C@H]2[C@@H]3CC[C@H]4C[C@H](OC(=O)[C@@H](N)C(C)C)CC[C@]4(C)[C@H]3CC[C@]12C [Comparative compound 1 hydrochloride] |  |  |  |  |  |  | 29.9 |  |  |  |
| [2H]C(C)(C)[C@H](N)C(=O)O[C@@H]1CC[C@@]2(C)[C@@H](CC[C@@H]3[C@@H]2CC[C@]2(C)[C@@H](C(C)=O)CC[C@@H]32)C1 [Compound 1] | 1000 | 956 | 874 | 575 | 423 | 352 |  |  | 1930 |  |
| CC(=O)[C@H]1CC[C@H]2[C@@H]3CC[C@H]4C[C@H](OC(=O)[C@@H](N)C(C)C)CC[C@]4(C)[C@H]3CC[C@]12C [Comparative compound 1] | 1000 | 801 | 680 | 484 | 306 | 256 |  |  | 770 | unable to achieve a stable level |
| [2H]C(C)(C)[C@H](N)C(=O)O[C@@H]1CC[C@@]2(C)[C@@H](CC[C@@H]3[C@@H]2CC[C@]2(C)[C@@H](C(C)=O)CC[C@@H]32)C1 [Compound 1 hydrochloride] |  |  |  |  |  |  | 31.2 |  |  |  |
| [2H]C(N)(C(=O)O[C@@H]1CC[C@@]2(C)[C@@H](CC[C@@H]3[C@@H]2CC[C@]2(C)[C@@H](C(C)=O)CC[C@@H]32)C1)C(C)C (stereo partly drawn) [Compound 3 hydrochloride] |  |  |  |  |  |  | 19 |  |  |  |
| C[C@]12CC[C@H]3[C@@H](CCC4=CC(=O)CC[C@@]43C)[C@@H]1CC[C@@H]2O [Testosterone, testosterone] | 1000 | 677 | 379 | 155 | 63 | 44 |  |  |  |  |
| O=C(O)Cc1ccccc1Nc1c(Cl)cccc1Cl [Diclofenac, diclofenac] | 1000 | 374 | 77 | 8 | 1 | 1 |  |  |  |  |
| [2H]C([2H])([2H])C([C@H](N)C(=O)O[C@@H]1CC[C@@]2(C)[C@@H](CC[C@@H]3[C@@H]2CC[C@]2(C)[C@@H](C(C)=O)CC[C@@H]32)C1)C([2H])([2H])[2H] [Compound 2 hydrochloride] |  |  |  |  |  |  | 36.1 |  |  |  |
